Ends that are not written are not given here.
Experiments:
[1] = test system: polyclonal antibody ab6982; assay: Epitope mapping of polyclonal antibody ab6982 against cyclic peptides of Ad5 fiber and hexon (peptide array); format: binding, rabbits
Source text: Polyclonal antibody ab6982 (Abcam) was generated by immunizing rabbits with purified AdV. It reacts with all capsid proteins of Ad5 including hexon, fiber and penton. It was shown that the antibody neutralizes Ad5 infection in a bioassay at 1000 adenovirus 5 particles/ml, a 50% inactivation of the adenovirus can be achieved at a 1/25,000 dilution of the antibody. In order to identify epitopic regions that could contain peptides for ab6982 paratope binding, the antibody was mapped against the sequences of fiber (NCBI Reference Sequence: AP 000226.1) and hexon protein (GenBank: BAG48782.1). […] The binding signal of this antibody to the array yielded several peptides that were aligned and clustered against the sequence of the protein. The peptide clusters were named cluster1-7 (fiber protein) and clusters8-16 (hexon protein) according to their ranked order of cyclic peptide hits (i.e. cluster contains the strongest binders, cluster2 the second strongest etc.). Below are the aligments of the corresponding peptides that bind to polyclonal antibody ab6982.

[2] = test system: IgG from human donors (anti-AAV antibodies); assay: Screen for anti-AAV antibodies in human sera, 2452 linear 15-amino-acid AAV peptides on microarrays (Table 1); format: binding; set-up: key to group I: X: the deduplicated aggregate of the respective top 10 peptide hits for each donor was compiled and designated as group I; key to group II: X: the deduplicated aggregate of the respective top 25 peptide hits for each donor was compiled and designated as group II; key to group III: X: the deduplicated aggregate of the respective top 50 peptide hits for each donor was compiled and designated as group III; conditions: human donor IgG binding to linear 15-amino-acid AAV peptides on microarray, fluorescence; for group II: membership in deduplicated aggregate of top 25 peptide hits for each donor; for group III: membership in deduplicated aggregate of top 50 peptide hits for each donor
In short: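 Peptide hits were grouped I to IV by pooling each donor's top 10, 25, 50 or 250 background-corrected fluorescence signals, after deduplication. Signals came from donor IgG, purified on protein G, bound to arrayed 15-residue linear peptides (2452 total) spanning 16 AAV sequences.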

[3] = cyclic peptides of hexon protein (clusters 8-16)
[4] = cyclic peptides of fiber protein (clusters 1-7)

Substance	antibody binding signal ranking from the microarray experiment [1, 3]	group II [2]	group III [2]	antibody binding signal ranking from the microarray experiment [1, 4]	group I ([2]; membership in deduplicated aggregate of top 10 peptide hits for each donor)
277 (DIETPDTHIS) [compound 277]	055	–	–	–	–
278 (EDVDIETPDTHIS) [compound 278]	056	–	–	–	–
279 (IETPDTHISY) [compound 279]	058	–	–	–	–
280 (YSEDVDIETPDTH) [compound 280]	059	–	–	–	–
281 (VDIETPDTHISYM) [compound 281]	060	–	–	–	–
282 (PKVVLYSEDVDIE) [compound 282]	061	–	–	–	–
283 (DIETPDT) [compound 283]	062	–	–	–	–
284 (DIETPDTHISYMP) [compound 284]	064	–	–	–	–
285 (EDVDIETPDT) [compound 285]	070	–	–	–	–
286 (ETPDTHISYM) [compound 286]	071	–	–	–	–
287 (IETPDTHISYMP) [compound 287]	159	–	–	–	–
288 (DRMYSFFRNF) [compound 288]	072	–	–	–	–
289 (DRMYSFF) [compound 289]	086	–	–	–	–
290 (YSFFRNF) [compound 290]	104	–	–	–	–
291 (IPESYKDRMYSFF) [compound 291]	107	–	–	–	–
292 (SYKDRMYSFF) [compound 292]	120	–	–	–	–
293 (ESYKDRMYSF) [compound 293]	127	–	–	–	–
294 (KDRMYSF) [compound 294]	143	–	–	–	–
295 (YIPESYKDRMYSF) [compound 295]	152	–	–	–	–
296 (PESYKDRMYSFFR) [compound 296]	153	–	–	–	–
297 (YKDRMYSFFR) [compound 297]	160	–	–	–	–
298 (TRYFSMW) [compound 298]	073	–	–	–	–

Substance	antibody binding signal ranking from the microarray experiment [1, 3]	group II [2]	group III [2]	antibody binding signal ranking from the microarray experiment [1, 4]	group I ([2]; membership in deduplicated aggregate of top 10 peptide hits for each donor)
299 (GDRTRYF) [compound 299]	080	–	–	–	–
300 (DSIGDRTRYF) [compound 300]	095	–	–	–	–
301 (DSIGDRTRYFSMW) [compound 301]	100	–	–	–	–
302 (GDRTRYFSMW) [compound 302]	101	–	–	–	–
303 (DRMYSFFRNF) [compound 303]	072	–	–	–	–
304 (SYKDRMYSFFRNF) [compound 304]	099	–	–	–	–
305 (NYNIGYQGFY) [compound 305]	106	–	–	–	–
306 (ANYNIGYQGF) [compound 306]	122	–	–	–	–
307 (MLANYNIGYQGFY) [compound 307]	123	–	–	–	–
308 (IGYQGFY) [compound 308]	136	–	–	–	–
309 (FLVQMLANYNIGY) [compound 309]	184	–	–	–	–
310 (NIGYQGF) [compound 310]	187	–	–	–	–
311 (QMLANYNIGYQGF) [compound 311]	190	–	–	–	–
ADPPTTFNQAKLAS [SEQ ID NO: 2009]	–	X	X	060	–
ADPPTTFNQSKLNS [SEQ ID NO: 2024]	–	X	X	032	–
AGDNVDYSSVMLTS [SEQ ID NO: 2010]	–	X	X	065	–
ANPGIAMATHKDDE [SEQ ID NO: 2060]	–	X	X	100	–
APGKKRPVEHSPVE (REGION 1..14: note = peptide derived from viral capsid protein) [SEQ ID NO: 1999]	–	X	X	061	X
DIYYQGPIWAKIPH (REGION 1..14: note = peptide derived from viral capsid protein) [SEQ ID NO: 2040]	–	X	X	102	–
DIYYQGPIWAKVPH [SEQ ID NO: 2030]	–	X	X	030	–
DKFFPMSGVMIFGK (not fully specified) [SEQ ID NO: 2044]	–	X	X	147	–
EEEIKATNPVATER [SEQ ID NO: 2045]	–	X	X	148	–

Substance	antibody binding signal ranking from the microarray experiment [1, 3]	group II [2]	group III [2]	antibody binding signal ranking from the microarray experiment [1, 4]	group I ([2]; membership in deduplicated aggregate of top 10 peptide hits for each donor)
EEEIKTTNPVATES (REGION 1..14: note = peptide derived from viral capsid protein) [SEQ ID NO: 2014]	–	X	X	123	–
EFAWPGASSWALNG (REGION 1..14: note = peptide derived from viral capsid protein) [SEQ ID NO: 2015]	–	X	X	126	–
EGADGVGNASGNWH (REGION 1..14: note = peptide derived from viral capsid protein) [SEQ ID NO: 2046]	–	X	X	169	–
EGASYQVPPQPNGM [SEQ ID NO: 2061]	–	X	X	108	–
EYRTTRPIGTRYLT [SEQ ID NO: 2062]	–	X	X	134	–
FEKVPFHSMYAHSQ (REGION 1..14: note = peptide derived from viral capsid protein) [SEQ ID NO: 2031]	–	X	X	058	–
FSAARINSFLTQYS [SEQ ID NO: 2032]	–	X	X	059	–
GESESVPDPQPIGE [SEQ ID NO: 2058]	–	X	X	091	–
GGQMATNNQSLALG [SEQ ID NO: 2021]	–	X	X	020	–
GQTGESESVPDPQP [SEQ ID NO: 2059]	–	X	X	095	–
HKDDEEKFFPQSGV (REGION 1..14: note = peptide derived from viral capsid protein) [SEQ ID NO: 2002]	–	X	X	150	–
HSQSLDRLMNPLLD [SEQ ID NO: 2051]	–	X	X	008	–
HSQSLDRMMNPLLD [SEQ ID NO: 2033]	–	X	X	062	–
IEMRAAPGGNAVDA [SEQ ID NO: 2052]	–	X	X	014	–
KGEPVNEADAAALE (REGION 1..14: note = peptide derived from viral capsid protein) [SEQ ID NO: 2003]	–	X	X	153	–
KKRILEPLGLVEEA [SEQ ID NO: 2023]	–	X	X	023	–
KKRILEPLGLVEEG [SEQ ID NO: 2034]	–	X	X	066	–
KNTPVPADPPTTFN (REGION 1..14: note = peptide derived from viral capsid protein) [SEQ ID NO: 2011]	–	X	X	076	–
KRLNFEEDTGAGDG [SEQ ID NO: 2053]	–	X	X	022	–
KRVLEPLGLVESPV [SEQ ID NO: 2012]	–	X	X	085	–

Reference: patent US20250213707A1, “COMPOUND FOR INCREASING EFFICACY OF ONCOLYTIC VIRUSES” (ABLEVIA BIOTECH GMBH, priority 2022, published 2025)
